Measurements reported in US9497965B2, “Pesticidal compounds” (Syngenta Participations AG, priority 2011, dated 2016).

| SMILES | melting point [°C] |
| --- | --- |
| O=C(NCC1(c2c(Cl)cc(Cl)cc2Cl)CC1)c1ncccc1C(F)(F)F [A.29, N-[[1-(2,4,6-trichlorophenyl)cyclopropyl]methyl]-3-(trifluoromethyl)pyridine-2-carboxamide] | 142 to 144 |
| N#Cc1cc(F)c(C2(CNC(=O)c3ccccc3C(F)(F)F)CC2)c(F)c1 [A.57, N-[[1-(4-cyano-2,6-difluoro-phenyl)cyclopropyl]methyl]-2-(trifluoromethyl)benzamide] | 100 to 102 |
